According to ChEMBL document CHEMBL1157876, “Isomeric tropane alkaloids from the aerial parts of Schizanthus tricolor” (J Nat Prod, 2010):

Experiments:
Plasmodium falciparum = assay: Antimalarial activity against chloroquine and pyrimethamine-resistant Plasmodium falciparum K1 infected in human erythrocytes after 72 hrs by spectrophotometry based Malstat method; format: functional, organism-based; conditions: K1, 72 h
[1] = Cytotoxicity against human MRC5 SV2 cells after 72 hrs by resazurin dye reduction assay; format: cell-based

## COC(=O)/C(C)=C/C(=O)O[C@@H]1C[C@H]2C[C@H](OC(=O)C=C(C)C)[C@H](C1)N2C
Plasmodium falciparum
  IC50: 63.5 µM

## C=C(CC(=O)O[C@@H]1C[C@H]2C[C@H](OC(=O)C=C(C)C)[C@H](C1)N2C)C(=O)OC
[1]
  CC50 at 72 h: > 64 µM
Plasmodium falciparum
  IC50: 22.8 µM

## C/C=C(/C)C(=O)O[C@H]1C[C@@H]2C[C@@H](OC(=O)/C=C(\C)C(=O)OC)C[C@@H]1N2C
[1]
  CC50 at 72 h: > 64 µM
Plasmodium falciparum
  IC50: 24.8 µM

## C/C=C(\C)C(=O)O[C@H]1C[C@@H]2C[C@@H](OC(=O)/C=C(\C)C(=O)OC)C[C@@H]1N2C
[1]
  CC50 at 72 h: > 64 µM
Plasmodium falciparum
  IC50: 36 µM

## CCN(CC)Cc1cc(Nc2ccnc3cc(Cl)ccc23)ccc1O
Plasmodium falciparum
  IC50: < 0.25 µM
